Results on one compound are retold here after patent publication US20120270237A9, “METHODS FOR THE IDENTIFICATION OF KINASE INTERACTING MOLECULES AND FOR THE PURIFICATION OF KINASE PROTEINS” (Cellzone AG, priority 2009, published 2012).

One test deals with CDC2 (Homo sapiens, UniProt P06493). As to the kind of experiment: Kinobeads competition binding, L-363 cell lysate. Particulars: 10 μM free compound, L-363 lysate. Details: capturing and identification of kinases from L-363 cell lysate; endogenous in cells; host or cells: L-363 cells (DSMZ ACC49), pre-treated with MG132. As for the experimental part:
(§1) To one aliquot of cell lysate 10 μM of the free compound (FIG. 3, CZC31326) was added and allowed to bind to proteins in the lysate. Then the affinity matrix with the immobilized compound was added to capture proteins that were not interacting with the previously added free compound. Beads were separated from the lysate and bead bound proteins were eluted in SDS sample buffer and subsequently separated by SDS-Polyacrylamide gel electrophoresis (FIG. 8). Suitable gel bands were cut out and subjected to in-gel proteolytic digestion with trypsin. The second lysate aliquot was processed identically, however no free compound was added (DMSO solvent control). Peptides originating from samples 1 and 2 were labeled with iTRAQ reagents (iTRAQ 114 and iTRAQ 117) and the combined samples were analyzed with a nano-flow liquid chromatography system coupled online to a tandem mass spectrometer (LC-MS/MS) experiment followed by iTRAQ reporter ion quantification in the MS/MS spectra as described in Example 2.
(§2) For this experiment the human plasma cell leukaemia line L-363 was used (German Collection of Microorganisms and Cell Cultures, DSMZ number ACC49, Braunschweig, Germany). Cells were treated for three hours with 20 μM of the proteasome inhibitor MG132 (Z-Leu-Leu-Leu-al, Sigma C2211) prior to cell harvesting.

The target in the next test is CK2a1 (Homo sapiens, UniProt P68400). As to the kind of experiment: Kinobeads competition binding, L-363 cell lysate. As to conditions: 10 μM free compound, L-363 lysate. More on the design: capturing and identification of kinases from L-363 cell lysate; endogenous in cells; host or cells: L-363 cells (DSMZ ACC49), pre-treated with MG132. As to the method: as §1, §2

In the next test the target is T1, IRAK4 (Homo sapiens, UniProt Q9NWZ3).
T1 sequence (Q9NWZ3 1-460): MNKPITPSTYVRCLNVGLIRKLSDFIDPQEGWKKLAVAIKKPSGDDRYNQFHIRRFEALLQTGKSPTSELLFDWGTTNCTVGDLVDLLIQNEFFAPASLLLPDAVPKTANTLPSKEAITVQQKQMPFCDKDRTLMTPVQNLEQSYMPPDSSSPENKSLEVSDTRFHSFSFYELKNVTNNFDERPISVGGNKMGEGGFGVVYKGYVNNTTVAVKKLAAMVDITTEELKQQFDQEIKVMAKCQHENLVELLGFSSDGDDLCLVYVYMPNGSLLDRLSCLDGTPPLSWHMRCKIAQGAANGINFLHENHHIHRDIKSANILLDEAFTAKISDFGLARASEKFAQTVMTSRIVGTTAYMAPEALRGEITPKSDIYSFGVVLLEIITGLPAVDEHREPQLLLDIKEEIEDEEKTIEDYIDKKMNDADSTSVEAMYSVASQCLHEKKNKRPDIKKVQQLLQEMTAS
Kind of test: Competition binding assay in HL60 cell lysate, antibody detection. More on the design: endogenous in cells; host or cells: HL60. Particulars: dose response curve, anti-IRAK4 antibody. As for the experimental part:
(§3) The experiment was performed as described in example 7. The test compound (or DMSO as solvent control) and diluted cell lysate were added to the affinity matrix and incubated for two hours at 4° C. After washing, captured proteins were eluted with SDS-containing sample buffer. After spotting of eluate samples onto Nitrocellulose membranes IRAK1 was detected with an anti-IRAK1 antibody and IRAK4 with anti-IRAK4 antibody followed by incubation with a secondary fluorescently labeled detection antibody.
(§4) Various concentrations of test compounds were added to HL60 lysate samples and allowed to bind to the proteins contained in the lysate sample. At the same time the affinity matrix with the immobilized compound (FIG. 3, CZC31326) was added as well in order to capture proteins not bound to the test compound. After the incubation time the beads with captured proteins were separated from the lysate. Bound proteins were then eluted and the presence of IRAK1 and IRAK4 was detected and quantitavely determined using specific antibodies and the Odyssey Infrared Detection system. […]
(§5) The kinases in the eluates were detected and quantified by spotting on Nitrocellulose membranes and using a first antibody directed against the kinase of interest and a fluorescently labeled secondary antibody (anti-mouse or anti-rabbit IRDye™ antibodies from Rockland). […]

The next test addresses IRAK1 (Homo sapiens, UniProt P51617). The test is described as above. More on the design: endogenous in cells; host or cells: HL60. Particulars: dose response curve, anti-IRAK1 antibody. As to the method:
as §3, §4, §5

The inhibition is the share of the control response that was lost under treatment. For orientation: IC50 means the concentration that inhibits the measured activity by half.

Sequence of CK2a1 (P68400 whole entry): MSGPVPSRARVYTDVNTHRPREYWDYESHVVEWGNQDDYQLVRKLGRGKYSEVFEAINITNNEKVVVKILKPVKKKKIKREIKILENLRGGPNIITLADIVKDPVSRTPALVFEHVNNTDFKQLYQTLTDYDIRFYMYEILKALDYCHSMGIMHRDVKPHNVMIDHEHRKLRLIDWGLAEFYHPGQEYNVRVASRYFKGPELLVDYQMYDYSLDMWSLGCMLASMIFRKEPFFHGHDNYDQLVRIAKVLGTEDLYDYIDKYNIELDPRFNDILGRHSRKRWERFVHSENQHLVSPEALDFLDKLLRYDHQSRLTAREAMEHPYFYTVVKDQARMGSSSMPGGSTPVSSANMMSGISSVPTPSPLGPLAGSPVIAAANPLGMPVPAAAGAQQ
Sequence of IRAK1 (P51617 whole entry): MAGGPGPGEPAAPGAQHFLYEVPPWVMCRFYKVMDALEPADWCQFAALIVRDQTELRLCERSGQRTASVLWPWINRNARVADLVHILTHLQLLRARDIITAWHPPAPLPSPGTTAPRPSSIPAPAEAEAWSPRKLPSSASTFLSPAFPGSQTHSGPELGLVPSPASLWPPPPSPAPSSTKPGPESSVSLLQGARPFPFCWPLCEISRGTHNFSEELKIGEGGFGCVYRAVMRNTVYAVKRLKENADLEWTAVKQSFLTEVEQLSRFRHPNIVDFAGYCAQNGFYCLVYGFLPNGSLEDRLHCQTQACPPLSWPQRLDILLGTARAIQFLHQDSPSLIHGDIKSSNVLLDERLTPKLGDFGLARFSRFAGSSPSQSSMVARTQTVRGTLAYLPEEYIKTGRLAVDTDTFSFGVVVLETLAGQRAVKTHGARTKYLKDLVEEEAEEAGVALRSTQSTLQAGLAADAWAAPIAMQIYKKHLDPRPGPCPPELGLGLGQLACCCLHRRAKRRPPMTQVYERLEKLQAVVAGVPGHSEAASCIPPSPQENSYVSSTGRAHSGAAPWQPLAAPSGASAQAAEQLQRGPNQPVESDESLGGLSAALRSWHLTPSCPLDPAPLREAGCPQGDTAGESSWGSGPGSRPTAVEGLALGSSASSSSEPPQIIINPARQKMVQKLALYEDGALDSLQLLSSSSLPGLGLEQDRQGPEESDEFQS
Sequence of CDC2 (P06493 whole entry): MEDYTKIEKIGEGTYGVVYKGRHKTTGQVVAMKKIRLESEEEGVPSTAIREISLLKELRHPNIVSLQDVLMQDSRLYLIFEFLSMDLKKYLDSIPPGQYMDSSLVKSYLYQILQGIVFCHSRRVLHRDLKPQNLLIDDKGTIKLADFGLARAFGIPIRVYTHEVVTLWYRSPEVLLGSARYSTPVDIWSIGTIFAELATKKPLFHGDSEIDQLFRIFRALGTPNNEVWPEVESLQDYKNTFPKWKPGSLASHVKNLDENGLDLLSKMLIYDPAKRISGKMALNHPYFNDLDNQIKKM

Regarding `CS(=O)(=O)Nc1ccccc1Nc1nc(Nc2cccc(OCCN)c2)ncc1Cl` [CZC31326, N-(2-(2-(3-(2-aminoethoxy)phenylamino)-5-chloropyrimidin-4-ylamino)phenyl)methanesulfonamide], the values for the inhibition at 10 µM on CDC2 and on CK2a1 were 95.1% and 97.9%, respectively. The values for the IC50 on IRAK4 and at IRAK1 were 40 nM and 150 nM, respectively.
